How the values were obtained:
hippocampal neurons = details: μM concentrations; cited from earlier work
Aβ1-40 = assay: nESI-IM-MS neuropeptide screen for binding with Aβ1-40; details: for Complex formation with Aβ1-40 detected by nESI-IM-MS: 20 μM Aβ1-40, one equivalent of neuropeptide, pH 6.9, 1 h on ice; for Aβ complexes detected by IM-MS: neuropeptide added in large excess in solution
metal-free Aβ1-40 = details: read-out: Kd relative to Aβ monomer; absence of metal ions; cited from earlier work

## physalaemin [reference compound]
Hippocampal neurons
  Inhibition of Aβ-induced neurotoxicity: inhibitors of Aβ-induced neurotoxicity

## Somatostatin 14
Aβ1-40
  Complex formation with Aβ1-40 detected by nESI-IM-MS: not evident
  Aβ complexes detected by IM-MS: No Aβ complexes were detected

## galanin
Aβ1-40
  Complex formation with Aβ1-40 detected by nESI-IM-MS: detected

## (–)-epigallocatechin-3-gallate [EGCG]
metal-free Aβ1-40
  Kd: ~60 µM

## substance P
Aβ1-40
  Complex formation with Aβ1-40 detected by nESI-IM-MS: not evident
  Aβ complexes detected by IM-MS: No Aβ complexes were detected
Hippocampal neurons
  Inhibition of Aβ-induced neurotoxicity: inhibitors of Aβ-induced neurotoxicity

## neurotensin
Aβ1-40
  Complex formation with Aβ1-40 detected by nESI-IM-MS: not evident
  Aβ complexes detected by IM-MS: No Aβ complexes were detected

— article PMC3664942 (Physical chemistry chemical physics : PCCP, 2013)
